Measured values reported in patent US12378247B2, “Mesylate salt of para-topolin, compositions containing said salt and use thereof” (USTAV EXPERIMENTALNI BOTANIKY AV CR, V. V. I., priority 2020, dated 2025).
≈ marks a conversion by molar mass, not a printed value. Structures can show the parent of a compound that is named as a salt. Where two headings read alike, the source gives them in different places.

Legend:
[1] = system: Human diploid fibroblast BJ; test: MTT cytotoxicity assay in normal fibroblasts; assay type: cell-based; conditions: 72 hours
Protocol: MTT (metabolic tetrazolium toxicity) assay is a standard colorimetric assay for evaluation of cytotoxicity. Mitochondrial dehydrogenase activity converts yellow MTT into violet formazan which is measured by means of spectrometry. Human diploid fibroblast BJ (passage 18-22) were seeded into 96-well plate (5.000 cells per well). After 6 hours cultivation medium (DMEM with 5 g/l glucose, 2 mM glutamine, 100 U/ml penicillin, […] streptomycin, 10% fetal calf serum and sodium bicarbonate) was replaced with the cultivation medium containing test compounds in concentration range of 0-200 μM. Highest concentration was adjusted if the solubility of the compound was limiting. Every concentration was tested in pentaplicate. MTT was added to the cells after 72 hours incubation (final concentration 0.5 mg/ml) and incubation continued for another 3 hours. MTT was solubilised by DMSO and absorbance at 570 nm was measured. Growth inhibition (GI) was estimated using the following equitation: GI=(mean A drug exposed wells-mean Ablank/mean Acontrol wells−mean Ablank)×100%. The GI20 value, the drug concentration causing 20% decrease in mitochondrial dehydrogenase activity, was calculated from the obtained dose response curves.

[2] = system: Salmonella typhimurium strain TA 98, TA 100, TA 1535, TA 1537 and Escherichia coli strain WP2 avrA; test: Ames test (bacterial reverse mutation assay); assay type: cell-based; conditions: 10-1000 μg per plate, with and without metabolic activation (rat liver supernatant)
Protocol: Para-topolin and para-topolin mesylate were tested for mutagenicity by a bacterial reverse mutation assay. The performance of the test was based on the EU method B.13/14 Mutagenicity-Reverse mutation test using bacteria, Council Regulation (EC) No. 440/2008, which is analogous to the OECD Test Guideline No. 471. Four indicators of Salmonella typhimurium strain TA 98, TA 100, TA 1535, TA 1537 were used and one Escherichia coli strain WP2 avrA was also used. The test substances were dissolved in dimethyl sulfoxide (DMSO) and tested at doses of 10-1000 μg per plate, which was applied to 0.1 ml plates. The experiments were performed with metabolic activation with rat liver supernatant and cofactor mixture as well as without metabolic activation.

Rat glioma C6 cells = test: Anti-inflammatory activity: isoproterenol-induced intracellular cAMP synthesis; assay type: cell-based
Protocol: The anti-inflammatory activity of para-topolin and para-topolin mesylate was determined; cytokinin kinetin was also evaluated as a control. Rat glioma C6 cells (ATCC No. CCL107) were cultured in a monolayer in chemically defined beser medium containing Ham's F10/minimal essential medium (1:1 v/v), 2 mM L-glutamine, 1% (v/v). Minimum vitamins of essential medium (100×), 1% (v/v) minimum essential amino acids (100×), 100 U/ml penicillin, […] streptomycin and 30 nM sodium selenite. Incubation was performed at 37° C. in a 100% humidified atmosphere. The assays were performed in logarithmic growth phase at a density of 2.5×10^5 cells/cm^2. Intracellular cAMP synthesis was induced by the addition of 5 mM (−)-isoproterenol; at the same time, various concentrations of tested compounds were added at the same time as (−)-isoproterenol. After 30 minutes of incubation, the cellular amount of CAMP was determined by ELISA (cAMP-enzyme immunoassay from Amersham). IC50 values were determined from the […] dose-response curve.

[3] = system: Senescent human diploid fibroblasts; test: Senescent cells (beta-galactosidase X-gal staining) in human fibroblast culture; assay type: cell-based
Protocol: Senescent human diploid fibroblasts (cells of different levels of passage: passage 20-P20; passage 40—labeled P40; passage 80—labeled P80) were seeded in a 24-well plate (10,000 cells/well). The culture medium (DMEM containing 5 g/l glucose, 2 mM glutamine, 100 U/ml penicillin, 100 μg/ml streptomycin and 10% fetal calf serum) was removed and replaced with culture medium containing test compound in a concentration range of 0 to 12.5 μM. Each concentration was tested in triplicate. The cells were then incubated at 37° C. […] In this experiment, senescent cells, but not other cells, were stained blue due to β-galactosidase on the substrate. […] In the oldest cells, there were only blue cells, from bright blue to almost opaque in color. Both para-topolins (base and mesylate salt) were effective in maintaining much lower levels of senescent cells after 80 passages. In the case of long-term culture, the treated cells were able to live 30% longer than the control cells.

[4] = Solubility in various organic solvents; assay type: physicochemical
Protocol: Solubility in various organic solvents was measured using the following protocol. Approximately 10 mg portions of para-topolin and crystalline para-topolin mesylate salt were placed in different vials, separately. Five volume aliquots of each solvent were added exclusively to a vial. Between each addition, the mixture was checked for dissolution and if no dissolution was apparent, the procedure was continued until dissolution was observed or further volumes had been added.

[5] = ORAC (Oxygen Radical Absorbance Capacity), ability to scavenge free radicals; assay type: biochemical; conditions: n = 3
Protocol: The ability of the substance to scavenge free radicals in vitro was determined using the ORAC (Oxygen Radical Absorbance Capacity) method. Briefly, 100 μl of fluorescein ([…]) and 25 μl of tested substance solution were pipetted into each well of a 96-well microtiter plate preheated to 37° C. The reaction itself was started by the addition of 25 μL 250 mM AAPH. After shaking for 5 s, the fluorescence (Ex. 485 nm, Em. 510 nm) was read every 3 min for 90 min using an Infinite 200 instrument (TECAN, Switzerland). The area under the curve was used to express the antioxidant capacity relative to trolox, which is used as a standard. […] Such activities are likely to be closely related to the electron-rich C6-hydroxybenzylamino substituent system.

[6] = isoproterenol-induced cAMP, C6 cells

For `Oc1ccc(CNc2ncnc3nc[nH]c23)cc1` [para-topolin mesylate, 6-(4-hydroxybenzylamino) purine (para-topolin) mesylate (methylsulphonate)], the “Cytotoxicity for Human Diploid Fibroblasts GI20” value ([1]; listed as 6-(4-hydroxybenzylamino)purine mesylate (para-topolin mesylate)) was over 167 µM, the Mutagenicity [2] was “non-mutagenic” and the “Anti-inflammatory activity (in words)” value (Rat glioma C6 cells; [6]) was “showed anti-inflammatory activity”. The “Anti-inflammatory activity relative to free base para-topolin” value (Rat glioma C6 cells; [6]) was “twice more active”, the “Senescent cells (%)” value ([3]; cell passage P20, listed as 6-(4-hydroxybenzylamino)purine mesylate (para-topolin mesylate)) was 3% and the “Senescent cells (%)” value ([3]; cell passage P40, listed as 6-(4-hydroxybenzylamino)purine mesylate (para-topolin mesylate)) was 12%. The “Senescent cells (%)” value ([3]; cell passage P80, listed as 6-(4-hydroxybenzylamino)purine mesylate (para-topolin mesylate)) was 21%, the Solubility ([4]; DMF, listed as p-topolin mesylate) was 14000 µg/mL and the Solubility ([4]; DMSO, listed as p-topolin mesylate) was 10000 µg/mL. The Solubility ([4]; acetone, listed as p-topolin mesylate) was 330 µg/mL, the Solubility ([4]; acetonitrile) was under 250 µg/mL and the Solubility ([4]; ethanol, listed as p-topolin mesylate) was 400 µg/mL. For the same compound, the Solubility ([4]; heptane) was under 100 µg/mL, the Solubility ([4]; methanol, listed as p-topolin mesylate) was 5000 µg/mL and the “ORAC Average(TE), Trolox equivalents on equimolar basis” value ([5]; listed as 6-(4-hydroxybenzylamino)purinium mesylate (pT mesylate)) was 21.436 TE.

With `Oc1ccc(CNc2ncnc3nc[nH]c23)cc1` [para-topolin, 6-(4-Hydroxybenzylamino) purine] the “Cytotoxicity for Human Diploid Fibroblasts GI20” value ([1]; listed as 6-(4-hydroxybenzylamino)purine (para-topolin)) was 138 µM, the Mutagenicity [2] was “non-mutagenic” and the IC50 (Rat glioma C6 cells; Rattus norvegicus, C6, 0.5 h, 5 mM (−)-isoproterenol, 30 minutes, cAMP by ELISA) was 7 µM. For the same compound, the “Anti-inflammatory activity (in words)” value (Rat glioma C6 cells; [6]) was “showed anti-inflammatory activity”, the “Senescent cells (%)” value ([3]; cell passage P20, listed as 6-(4-hydroxybenzylamino)purine (para-topolin)) was 4% and the “Senescent cells (%)” value ([3]; cell passage P40, listed as 6-(4-hydroxybenzylamino)purine (para-topolin)) was 14%. For the same compound, the “Senescent cells (%)” value ([3]; cell passage P80, listed as 6-(4-hydroxybenzylamino)purine (para-topolin)) was 25%, the Solubility ([4]; DMF, listed as p-topolin) was 5000 µg/mL (≈ 20700 µM) and the Solubility ([4]; DMSO, organic solvent or mixture, thermodynamic from solid, DMSO, read-out: Solubility) was 6660 µg/mL (≈ 27600 µM). The Solubility ([4]; acetone, organic solvent or mixture, thermodynamic from solid, acetone, read-out: Solubility) was 200 µg/mL (≈ 829 µM), the Solubility ([4]; acetonitrile, organic solvent or mixture, thermodynamic from solid, acetonitrile, read-out: Solubility) was under 250 µg/mL and the Solubility ([4]; ethanol, organic solvent or mixture, thermodynamic from solid, ethanol, read-out: Solubility) was 250 µg/mL (≈ 1040 µM). For the same compound, the Solubility ([4]; heptane, organic solvent or mixture, thermodynamic from solid, heptane, read-out: Solubility) was under 100 µg/mL, the Solubility ([4]; methanol, listed as p-topolin) was 250 µg/mL (≈ 1040 µM) and the “ORAC Average(TE), Trolox equivalents on equimolar basis” value ([5]; listed as 6-(4-hydroxybenzylamino)purine (pT)) was 16.799 TE.
